Data taken from patent US9827255B2, “Fumagillol derivatives” (Takeda Pharmaceutical Company Limited, priority 2014, dated 2017).
Read-outs that look alike come from different tables or passages of the source.

Columns and labels:
[1] = biological target: T1, MetAP2 (Homo sapiens, UniProt P50579); assay: MetAP2 cellular activity: Western blotting of NMet-14-3-3γ in HUVEC cells; assay type: cell-based; design: host or cells: HUVEC; conditions: 24 hours, ratio of unprocessed N-Met14-3-3γ over β-actin, read-out: MetAP2 Cell pEC50 (converted)
T1 sequence (P50579 whole entry): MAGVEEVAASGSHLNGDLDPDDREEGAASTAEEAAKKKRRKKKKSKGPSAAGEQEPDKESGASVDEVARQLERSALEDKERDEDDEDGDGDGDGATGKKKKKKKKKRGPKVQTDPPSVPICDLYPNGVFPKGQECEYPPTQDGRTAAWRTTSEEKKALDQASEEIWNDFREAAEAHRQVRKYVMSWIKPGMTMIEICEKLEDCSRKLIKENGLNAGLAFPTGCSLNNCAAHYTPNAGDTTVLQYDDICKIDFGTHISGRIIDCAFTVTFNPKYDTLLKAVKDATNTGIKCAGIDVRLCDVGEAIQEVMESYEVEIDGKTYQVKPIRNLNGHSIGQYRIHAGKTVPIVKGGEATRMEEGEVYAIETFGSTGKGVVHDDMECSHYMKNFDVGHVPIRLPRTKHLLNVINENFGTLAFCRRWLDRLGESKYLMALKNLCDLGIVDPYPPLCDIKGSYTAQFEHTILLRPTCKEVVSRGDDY
Procedure: HUVEC cells (Lonza) are seeded in 96-well tissue culture microplates and cultured for 24 hours prior to addition of test compounds (11 point range of serial dilutions) or DMSO vehicle. After 24 hours, whole cell extracts are prepared by lysing cells in cell extraction buffer (Cell Signaling) containing protease and phosphatase inhibitors (Calbiochem). Insoluble material is removed by centrifugation and samples are diluted and boiled in SDS-PAGE buffer. Proteins are resolved by SDS-PAGE and transferred to PVDF membranes. Membranes are blocked then incubated with the appropriate primary antibodies, NMet-14-3-3γ (Novus) and β-actin (Sigma), followed by incubation with secondary IRDye 680- or 800CW-conjugated antibodies (Li-Cor). Membranes are scanned on the Odyssey (Li-Cor) and signals corresponding to N-Met14-3-3γ and β-actin are quantified using LiCor software. Compound EC50s are obtained by curve-fitting the ratios of unprocessed N-Met14-3-3γ protein signal over β-actin protein signal using XLfit4 Microsoft Excel curve-fitting software and are reported as pEC50, i.e., −log(EC50), where EC50 is the molar concentration at 50% effective (maximal) response.
TABLE 1 lists MetAP2 inhibition for some of the compounds shown in the examples, where larger pIC50 and pEC50 values represent higher potency. The compounds shown in TABLE 1 were tested in accordance with the enzyme assay (pIC50) described in the specification beginning at page 35, in which the MetAP2 enzyme is complexed with cobalt or manganese ions, and in accordance with the cellular assay (pEC50) described in the specification beginning at page 36.

[2] = biological target: T1, MetAP2; assay: Enzyme assay: inhibition of MetAP2 (Met-AMC substrate, fluorescence); assay type: biochemical; design: made in house; host or cells: Spodoptera frugiperda Sf9 cells (baculovirus, pFastBac)
Procedure: DNA encoding the full-length sequence of human MetAP2 enzyme is amplified by PCR and cloned into a pFastBac expression vector (Invitrogen). Recombinant baculovirus incorporating the MetAP2 construct is generated by transposition using the Bac-to-Bac system (Invitrogen). The expression of recombinant protein is carried out by infection of Spodoptera frugiperda Sf9 cells (Invitrogen) in 5 L Wave Bioreactors (Wave Biotech). Recombinant protein is isolated from cellular extracts by binding to an SP Hitrap Fast Flow or SP Sepharose (Sigma) column, and the protein is eluted using a NaCl gradient. Partially purified extracts of MetAP2 are further purified by an AKTA FPLC over a Superdex-200 column (GE). The purity of MetAP2 protein is determined on denaturing SDS-PAGE gel. Purified MetAP2 protein is concentrated to a final concentration of 17 mg/mL or 2.5 mg/mL. The protein is stored at −78° C. in a buffer containing 10 mM HEPES pH 7.4, 150 mM NaCl, and 1 mM CoCl2 or in a buffer containing 20 mM HEPES pH 7.4, 120 mM NaCl, and 5 mM MnCl2.
The inhibition of MetAP2 is determined using a black 384-well-plate format under the following reaction conditions: 50 mM Hepes pH 7.5, 100 mM NaCl, 10 μM MnCl2 or 10 μM CoCl2, 0.005% Brij35®, 1 mM TCEP, 1% DMSO. To initiate the assay, 4 μL of 5 to 50 nM MetAP2 enzyme solution (enzyme final concentration is 2 to 20 nM) is added to each well, followed by the addition of 2 μL of the test compound (2.5-fold serial dilutions for 11 data points for each test compound) in a buffer solution containing 5% DMSO. Next, 4 μL of a substrate solution (2.5×Km of Met-AMC) is added to each well of the plate (final substrate concentration at Km value). The reaction rate is monitored by reading fluorescence at 460 nm with excitation wavelength at 330 nm for 10 to 30 minutes using a fluorescence plate reader. The results for each well are expressed as percent inhibition and calculated using the equation: […]

[3] = Body weight loss in high-fat diet C57bl/6 mice; assay type: in vivo; conditions: once daily, 28 days, oral gavage, male C57bl/6 mice on high-fat diet, BW loss relative to pretreatment
Excerpt: Ten to twelve weeks old male C57bl/6 mice are obtained from commercial vendors, and placed on high-fat diet (60% kcal fat) for at least 15 weeks. Treatment with MetAP2 inhibitors is initiated when the average body weight reaches approximately 50 g. The MetAP2 inhibitors are formulated in an aqueous solution of 0.5% methyl cellulose and administered through oral gavage. Control animals receive the equivalent volume of aqueous 0.5% methyl cellulose solution without a MetAP2 inhibitor. Body weight (BW) and food intake are recorded daily, and efficacy is calculated individually as a percentage of BW loss relative to the pretreatment values. Depending on the study design, the treatment is continued for 12, 14 or 28 days. In some studies, indirect calorimetry or body composition are determined at the end of the treatment.
TABLE 2 lists body weight loss (BWL) in mice following treatment with some of the compounds shown in the examples. The compounds shown in TABLE 2 were tested in accordance with the BWL protocol described in the specification beginning at page 36, using the dose, dosing regimen (frequency), and treatment duration indicated in table.

[4] = Hypoglycemic activity in KKA^y mice; assay type: in vivo; conditions: 10 mg/kg once daily oral gavage, 4-week treatment, male KKA^y mice, mean±SD of 8 animals, p < 0.025 vs. control
Procedure: Six-week-old male KKA^y mice are obtained from commercial vendors and placed on standard chow. Treatment with a MetAP2 inhibitor is initiated after 8-day acclimization. The MetAP2 inhibitor is formulated in an aqueous 0.5% methylcellulose solution, which is administered once daily through oral gavage. Control animals are treated with the equivalent volume of aqueous 0.5% methylcellulose solution without the compound. After 4 weeks, blood is collected from the tail vein of each of the mice. Glycated hemoglobin levels are measured using a Tosoh HLC-723G8 automated glycohemoglobin analyzer, and plasma glucose levels are measured using a Hitachi model 7180 automated glucose analyzer. For evaluation of the hypoglycemic activity of the MetAP2 inhibitor, statistical differences between control- and compound-treated groups are analyzed using a one-tailed Williams test.
TABLE 3 lists glycated hemoglobin (GHb) and plasma glucose (PG) levels in KKA^y mice after a 4-week treatment with the compound shown in Example 1. The study was conducted in accordance with the protocol described in the specification beginning at page 37, using the dose indicated in table. Values are indicated by mean±standard deviation of 8 animals in each group.

[5] = MetAP2 enzyme complexed with cobalt ions, read-out: MetAP2 Co pIC50 (converted)

For CCOP(=O)(CCO[C@@H]1CC[C@]2(CO2)[C@@H]([C@@]2(C)O[C@@H]2CC=C(C)C)[C@@H]1OC)OCC [Example 5, diethyl (2-(((3R,4S,5S,6R)-5-methoxy-4-((2R,3R)-2-methyl-3-(3-methylbut-2-en-1-yl)oxiran-2-yl)-1-oxaspiro[2.5]octan-6-yl)oxy)ethyl)phosphonate], the EC50 [1] was 6.17 nM, the IC50 [2, 5] was 97.7 nM and the BWL ([3]; 1 mg/kg) was 18%.
In the case of CO[C@@H]1[C@H](OCCP(=O)(c2ccc(C)cc2)c2ccc(C)cc2)CC[C@]2(CO2)[C@H]1[C@@]1(C)O[C@@H]1CC=C(C)C [Example 2, (2-(((3R,4S,5S,6R)-5-methoxy-4-((2R,3R)-2-methyl-3-(3-methylbut-2-en-1-yl)oxiran-2-yl)-1-oxaspiro[2.5]octan-6-yl)oxy)ethyl)di-p-tolylphosphine oxide], the EC50 [1] is reported as 6.61 nM.
CO[C@@H]1[C@H](OCCP(=O)(c2ccccc2)c2ccccc2)CC[C@]2(CO2)[C@H]1[C@@]1(C)O[C@@H]1CC=C(C)C [Example 1, (2-(((3R,4S,5S,6R)-5-methoxy-4-((2R,3R)-2-methyl-3-(3-methylbut-2-en-1-yl)oxiran-2-yl)-1-oxaspiro[2.5]octan-6-yl)oxy)ethyl)diphenylphosphine oxide] gave an EC50 [1] of 4.79 nM, an IC50 [2, 5] of 44.7 nM and an IC50 ([2]; MetAP2 enzyme complexed with manganese ions, read-out: MetAP2 Mn pIC50 (converted)) of 200 nM. The BWL ([3]; 3 mg/kg) was 18%, the “GHb (glycated hemoglobin)” value ([4]; control 6.8 ± 0.4) was 5.6 ± 0.4 % and the “PG (plasma glucose)” value ([4]; control 436.6 ± 64.4) was 296.5 ± 77.4 mg/dL.
With CO[C@@H]1[C@H](OCCP(=O)(OC)OC)CC[C@]2(CO2)[C@H]1[C@@]1(C)O[C@@H]1CC=C(C)C [Example 4, dimethyl (2-(((3R,4S,5S,6R)-5-methoxy-4-((2R,3R)-2-methyl-3-(3-methylbut-2-en-1-yl)oxiran-2-yl)-1-oxaspiro[2.5]octan-6-yl)oxy)ethyl)phosphonate] the EC50 [1] was 3.47 nM.
